The values that follow are results of earlier work, collected in patent US11702451B2, “Method for synthesizing amanitins” (Heidelberg Pharma Research GmbH, priority 2017, dated 2023).

For the data set, the target named is DNA-dependent RNA polymerase II (Homo sapiens, UniProt P24928). The following applies: background statement, no method given; read-out: KD of the complex between amanitin and RNA-polymerase II.

amanitin: the Kd is 3 nM.

Broadly, the Kd is a measure of binding affinity in units of concentration.
